Experimental data as given in ChEMBL document CHEMBL1201862, “PubChem BioAssay data set” (2004).
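Test compounds were applied to cells in 96-well plates for 48 hours at 5 doses. The concentration for 50% growth inhibition is given as GI50.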 Activity calls are given as the source filed them. No stated cut-off is given here; in the data, active = GI50 up to about 1.1 µM and inactive = higher.

Experiments:
Test in all cases: DTP human tumour cell line panel, 48 h
A498 = tested on: A498
COLO 205 = tested on: COLO 205
HCC 2998 = tested on: HCC 2998
IGROV-1 = tested on: IGROV-1
K562 = tested on: K562
NCI-H226 = tested on: NCI-H226
NCI-H522 = tested on: NCI-H522
OVCAR-8 = tested on: OVCAR-8
RPMI-8226 = tested on: RPMI-8226
SF-539 = tested on: SF-539
SK-MEL-28 = tested on: SK-MEL-28
SK-OV-3 = tested on: SK-OV-3
SNB-75 = tested on: SNB-75
SW-620 = tested on: SW-620
UACC-62 = tested on: UACC-62
EKVX = tested on: EKVX
HCT-15 = tested on: HCT-15
MOLT-4 = tested on: MOLT-4
NCI-H23 = tested on: NCI-H23
SNB-19 = tested on: SNB-19

Compound	GI50 (A498)	GI50 (COLO 205)	GI50 (HCC 2998)	GI50 (IGROV-1)	GI50 (K562)	GI50 (NCI-H226)	GI50 (NCI-H522)	GI50 (OVCAR-8)	GI50 (RPMI-8226)	GI50 (SF-539)	GI50 (SK-MEL-28)	GI50 (SK-OV-3)	GI50 (SNB-75)	GI50 (SW-620)	GI50 (UACC-62)	GI50 (EKVX)	GI50 (HCT-15)	GI50 (MOLT-4)	GI50 (NCI-H23)	GI50 (SNB-19)
Nc1[nH]cnc2ncnc1-2 [ADENINE]	7.14 µM (inactive)	> 162 µM (inactive)	> 125 µM (inactive)	> 250 µM (inactive)	> 248 µM (inactive)	111 µM (inactive)	50.7 µM (inactive)	105 µM (inactive)	168 µM (inactive)	49.7 µM (inactive)	> 243 µM (inactive)	> 250 µM (inactive)	121 µM (inactive)	231 µM (inactive)	48.1 µM (inactive)	–	–	–	–	–
Cc1c2c(cc3c1[nH]c1ccccc13)C=NCC2	10.5 µM (inactive)	7.13 µM (inactive)	21.5 µM (inactive)	16.2 µM (inactive)	6.17 µM (inactive)	20.7 µM (inactive)	12.9 µM (inactive)	10.2 µM (inactive)	10.5 µM (inactive)	6.37 µM (inactive)	7.36 µM (inactive)	46.8 µM (inactive)	10.6 µM (inactive)	8.43 µM (inactive)	8.49 µM (inactive)	33 µM (inactive)	13.1 µM	7.69 µM (inactive)	19.7 µM (inactive)	18.2 µM (inactive)
O=C(O[C@@H](/C=C/c1ccccc1)P1(=O)N(Cc2ccccc2)[C@H]2CCCC[C@@H]2N1Cc1ccccc1)c1ccccc1	2.12 µM (inactive)	1.7 µM (inactive)	2.58 µM (inactive)	4.79 µM (inactive)	3.47 µM (inactive)	2.79 µM (inactive)	3.55 µM (inactive)	4.3 µM (inactive)	2.29 µM (inactive)	4.57 µM (inactive)	7.78 µM (inactive)	4.54 µM (inactive)	5.6 µM (inactive)	3.69 µM (inactive)	2.12 µM (inactive)	4.12 µM (inactive)	3.28 µM	–	2.96 µM (inactive)	5.81 µM (inactive)
Nc1nc(SCCNC(=O)CCc2ccc(O)c(I)c2)nc2c1ncn2C1OC(CO)C(O)C1O (stereo not drawn)	> 100 µM (inactive)	> 100 µM (inactive)	> 100 µM (inactive)	> 100 µM (inactive)	> 100 µM (inactive)	> 100 µM (inactive)	> 100 µM (inactive)	> 100 µM (inactive)	–	> 100 µM (inactive)	> 100 µM (inactive)	> 100 µM (inactive)	> 100 µM (inactive)	> 100 µM (inactive)	> 100 µM (inactive)	> 100 µM (inactive)	> 100 µM	> 100 µM (inactive)	> 100 µM (inactive)	> 100 µM (inactive)
CCCCOc1ccc(OCCCCCCCCCC[N+](C)(C)C)cc1	9.93 µM (inactive)	1.24 µM (inactive)	1.95 µM (inactive)	1.37 µM (inactive)	2.74 µM (inactive)	4.26 µM (inactive)	1.7 µM (inactive)	3.66 µM (inactive)	0.481 µM (active)	3.24 µM (inactive)	5.58 µM (inactive)	2.89 µM (inactive)	2.17 µM (inactive)	3.66 µM (inactive)	4.06 µM (inactive)	15.5 µM (inactive)	14.9 µM	1.38 µM (inactive)	1.95 µM (inactive)	7.6 µM (inactive)
CSc1nc(NC2OCC(O)C(O)C2O)c(N)c(=O)[nH]1 (stereo not drawn)	> 100 µM (inactive)	> 100 µM (inactive)	> 100 µM (inactive)	> 100 µM (inactive)	> 100 µM (inactive)	> 100 µM (inactive)	> 100 µM (inactive)	> 100 µM (inactive)	> 100 µM (inactive)	> 100 µM (inactive)	> 100 µM (inactive)	> 100 µM (inactive)	> 100 µM (inactive)	> 100 µM (inactive)	> 100 µM (inactive)	> 100 µM (inactive)	> 100 µM	> 100 µM (inactive)	> 100 µM (inactive)	> 100 µM (inactive)
CC(=O)NC1=C[C@@H]([C@H]2COC(C)(C)O2)OC1=O	> 100 µM (inactive)	> 100 µM (inactive)	99.3 µM (inactive)	> 100 µM (inactive)	> 100 µM (inactive)	> 100 µM (inactive)	> 100 µM (inactive)	> 100 µM (inactive)	> 100 µM (inactive)	> 100 µM (inactive)	> 100 µM (inactive)	> 100 µM (inactive)	> 100 µM (inactive)	> 100 µM (inactive)	> 100 µM (inactive)	> 100 µM (inactive)	> 100 µM	> 100 µM (inactive)	> 100 µM (inactive)	> 100 µM (inactive)
